This is an account of results in patent US20070041915A1, “Use of a biguanide derivative for protecting skin against uvb radiation” (PHARMAMENS, priority 2003, published 2007).

For data set [1] the following is noted: cited from earlier work.
For a further data set, the system named is Langerhans cells. Nature of the data set: Protective activity against UVB-induced immunosuppressive photo effect (depletion of Langerhans cells) on survival-maintained human skin explants, anti-CD1a labelling. Format: cell-based. Conditions: histology and immunolabelling of Langerhans cells 24 hours after irradiation; preventive application. How it is done:
The purpose of this study is to evidence the protective activity of metformin against an immunosuppressive photo effect (depletion of Langerhans cells) induced by UVB radiation on a survival-maintained human skin model.
The immunosuppressive photo activity induced by UVB is, assessed by counting the number of Langerhans cells in a separated epidermis and in tissue sections after anti-CDla labelling.
27 skin explants were prepared and maintained in-survival in a culture medium. They were divided among 9 batches of three explants: three reference batches, three excipient batches and three ointment batches containing 1% metformin (formulation example 3).
3 batches (reference, excipient and ointment) were exposed to UVB radiation of 4 J/cm^2, three batches (reference, excipient and ointment) to UVB radiation of 6 J/cm^2 and the three last batches were placed in darkness during the time of irradiation.
Daily application of the ointment was 4 mg per explant for 3 days before irradiation.
Analysis of the reference and treated explants was performed 24 h after irradiation.
Anti-CDla immunolabelling of Langerhans cells was made in the separated epidermis and in tissue sections.

With `CN(C)C(=N)N=C(N)N` [metformin], the toxicity entry in data set [1] (at hypoglycaemic doses) is “absence of toxicity”. For the same compound, in data set [1] (in vivo), the chronic toxicity result is on record as “practically zero” and the tolerance result is “good”. Besides, the “protective activity against UVB” value with Langerhans cells is given as “protective action”.
